Data reported in ChEMBL document CHEMBL1821610 (Bioorg Med Chem Lett, 2011).
Converted amounts (≈) assume the structure as drawn.

Columns and labels:
Plasmodium falciparum [1] = experiment: Antimalarial activity against Plasmodium falciparum infected in A-positive human erythrocytes assessed as [3H]-hypoxanthine uptake after 24 hrs by liquid scintillation counter; assay type: functional, organism-based
[2] = Chromatographic hydrophobicity index of the compound at pH 2 by rapid gradient HPLC analysis; assay type: physicochemical
[3] = Chromatographic hydrophobicity index of the compound at pH 7.4 by rapid gradient HPLC analysis; assay type: physicochemical
[4] = Chromatographic hydrophobicity index of the compound at pH 10.5 by rapid gradient HPLC analysis; assay type: physicochemical
[5] = Partition coefficient, log P of the compound; assay type: physicochemical; details: octanol/water
[6] = Dissociation constant, pKa of the compound; assay type: physicochemical
[7] = Solubility of the compound in simulated gastric fluid at pH 1.2; assay type: physicochemical; details: simulated gi fluid
[8] = Solubility of the compound in fed state simulated intestinal fluid at pH 5.0; assay type: physicochemical
[9] = Solubility of the compound in fasted state simulated intestinal fluid at pH 6.8; assay type: physicochemical
[10] = Solubility of the compound in PBS at pH 7.4; assay type: physicochemical
Mus musculus = experiment: Cmax in CD1 mouse at 10 mg/kg, po; assay type: ADME, organism-based; design: dose 10 mg/kg, route oral; details: in vivo
[11] = Oral bioavailability in CD1 mouse at 10 mg/kg; assay type: ADME, organism-based; details: in vivo
[12] = Volume of distribution in CD1 mouse at 0.2 mg/kg, iv; assay type: ADME, organism-based; design: dose 0.2 mg/kg, route intravenous; details: in vivo
[13] = Clearance in CD1 mouse at 0.2 mg/kg, iv; assay type: ADME, organism-based; design: dose 0.2 mg/kg, route intravenous; details: in vivo
[14] = Half life in CD1 mouse at 0.2 mg/kg, iv; assay type: ADME, organism-based; design: dose 0.2 mg/kg, route intravenous; details: in vivo
Canis familiaris = experiment: Cmax in Beagle dog at 2 mg/kg, po; assay type: ADME, organism-based, Canis lupus familiaris; design: dose 2 mg/kg, route oral; details: in vivo
[15] = Oral bioavailability in Beagle dog at 2 mg/kg; assay type: ADME, organism-based, Canis lupus familiaris; details: in vivo
[16] = Volume of distribution in Beagle dog at 0.05 mg/kg, iv; assay type: ADME, organism-based, Canis lupus familiaris; design: dose 0.05 mg/kg, route intravenous; details: in vivo
[17] = Clearance in Beagle dog at 0.05 mg/kg, iv; assay type: ADME, organism-based, Canis lupus familiaris; design: dose 0.05 mg/kg, route intravenous; details: in vivo
[18] = Half life in Beagle dog at 0.05 mg/kg, iv; assay type: ADME, organism-based, Canis lupus familiaris; design: dose 0.05 mg/kg, route intravenous; details: in vivo
Plasmodium falciparum [19] = experiment: Antimalarial activity against Plasmodium falciparum in po dosed HM-IL2R gamma null mouse assessed as reduction in parasitemia administered once a day for 4 days; assay type: functional; details: 96 h

Cc1[nH]c(CN2CCOCC2)c(-c2ccc(Oc3ccc(OC(F)(F)F)cc3)cc2)c(=O)c1Cl
IC50 (Plasmodium falciparum [1]): > 0.25 µM

Cc1[nH]c(C(=O)O)c(-c2ccc(Oc3ccc(OC(F)(F)F)cc3)cc2)c(=O)c1Cl
IC50 (Plasmodium falciparum [1]): > 0.25 µM

Cc1[nH]c(C(=O)N(C)C)c(-c2ccc(Oc3ccc(OC(F)(F)F)cc3)cc2)c(=O)c1Cl
IC50 (Plasmodium falciparum [1]): > 0.25 µM

Cc1[nH]c(C)c(-c2ccc(Oc3ccc(OC(F)(F)F)cc3)cc2)c(=O)c1Cl
IC50 (Plasmodium falciparum [1]): 0.007 µM | CHI [2]: 2.75 | CHI [3]: 2.79 | CHI [4]: 2.77 | logP [5]: 4.8 | pKa [6]: 10.1 | solubility [7]: 0.287 mg/mL (≈ 700 µM) | solubility [8]: 0.7 mg/mL (≈ 1710 µM) | solubility [9]: 0.5 mg/mL (≈ 1220 µM) | solubility [10]: < 0.1 mg/mL | Cmax (Mus musculus): 0.9 µg/mL | bioavailability [11]: 20% | Vd [12]: 1.2 L/kg | clearance [13]: 0.036 L/h/kg | half-life [14]: 24.1 h | Cmax (Canis familiaris): 0.03 µg/mL | bioavailability [15]: 4.4% | Vd [16]: 2.9 L/kg | clearance [17]: 0.012 L/h/kg | half-life [18]: 143 h

Cc1[nH]c(CO)c(-c2ccc(Oc3cccc(C(F)(F)F)c3)cc2)c(=O)c1Cl
IC50 (Plasmodium falciparum [1]): 0.003 µM

Cc1[nH]c(CN(C)C)c(-c2ccc(Oc3ccc(OC(F)(F)F)cc3)cc2)c(=O)c1Cl
IC50 (Plasmodium falciparum [1]): > 0.25 µM

Cc1[nH]c(CO)c(Cl)c(=O)c1-c1ccc(Oc2cccc(C(F)(F)F)c2)cc1
IC50 (Plasmodium falciparum [1]): 0.12 µM

Cc1[nH]c(CN2CCCC2)c(-c2ccc(Oc3ccc(OC(F)(F)F)cc3)cc2)c(=O)c1Cl
IC50 (Plasmodium falciparum [1]): > 0.25 µM

Cc1[nH]c(CN(C)C)c(Cl)c(=O)c1-c1ccc(Oc2ccc(OC(F)(F)F)cc2)cc1
IC50 (Plasmodium falciparum [1]): > 0.25 µM

Cc1[nH]c(CN2CCOCC2)c(Cl)c(=O)c1-c1ccc(Oc2ccc(OC(F)(F)F)cc2)cc1
IC50 (Plasmodium falciparum [1]): > 0.25 µM

Cc1[nH]c(CO)c(-c2ccc(Oc3ccc(OC(F)(F)F)cc3)cc2)c(=O)c1Cl
ED50 (Plasmodium falciparum [19]): 0.6 mg/kg | IC50 (Plasmodium falciparum [1]): 0.002 µM | CHI [2]: 2.43 | CHI [3]: 2.42 | CHI [4]: 2.2 | logP [5]: 4.4 | pKa [6]: 9.73 | solubility [7]: 0.372 mg/mL (≈ 874 µM) | solubility [8]: 2.34 mg/mL (≈ 5500 µM) | solubility [9]: 0.69 mg/mL (≈ 1620 µM) | solubility [10]: < 0.1 mg/mL | Cmax (Mus musculus): 1.1 µg/mL | bioavailability [11]: 50% | Vd [12]: 1 L/kg | clearance [13]: 0.18 L/h/kg | half-life [14]: 3.8 h | Cmax (Canis familiaris): 0.3 µg/mL | bioavailability [15]: 16% | Vd [16]: 2.8 L/kg | clearance [17]: 0.048 L/h/kg | half-life [18]: 42 h

Cc1[nH]c(CO)c(Cl)c(=O)c1-c1ccc(Oc2ccc(OC(F)(F)F)cc2)cc1
IC50 (Plasmodium falciparum [1]): 0.13 µM

Cc1[nH]c(C)c(-c2ccc(Oc3cccc(C(F)(F)F)c3)cc2)c(=O)c1Cl
IC50 (Plasmodium falciparum [1]): 0.003 µM

Cc1[nH]c(CN2CCCC2)c(Cl)c(=O)c1-c1ccc(Oc2ccc(OC(F)(F)F)cc2)cc1
IC50 (Plasmodium falciparum [1]): > 0.25 µM
